Blank lines part the entries; values can stand above or below the compound they belong to.
Assays:
human CYP11B1 = molecular target: T1, human CYP11B1 (Homo sapiens, UniProt P15538); assay: G-402 cell enzyme experiment, human CYP11B1 (cortisol production, HTRF); selectivity of CYP11B2 over CYP11B1; assay type: cell-based; settings: G-402 cells expressing human CYP11B1 or CYP11B2; selectivity for CYP11B2 over CYP11B1
T1 construct: The main elements of an expression plasmid include ORF of human CYP11B1 or human CYP11B2; expressed in transfected cells
T1 sequence (P15538 25-503): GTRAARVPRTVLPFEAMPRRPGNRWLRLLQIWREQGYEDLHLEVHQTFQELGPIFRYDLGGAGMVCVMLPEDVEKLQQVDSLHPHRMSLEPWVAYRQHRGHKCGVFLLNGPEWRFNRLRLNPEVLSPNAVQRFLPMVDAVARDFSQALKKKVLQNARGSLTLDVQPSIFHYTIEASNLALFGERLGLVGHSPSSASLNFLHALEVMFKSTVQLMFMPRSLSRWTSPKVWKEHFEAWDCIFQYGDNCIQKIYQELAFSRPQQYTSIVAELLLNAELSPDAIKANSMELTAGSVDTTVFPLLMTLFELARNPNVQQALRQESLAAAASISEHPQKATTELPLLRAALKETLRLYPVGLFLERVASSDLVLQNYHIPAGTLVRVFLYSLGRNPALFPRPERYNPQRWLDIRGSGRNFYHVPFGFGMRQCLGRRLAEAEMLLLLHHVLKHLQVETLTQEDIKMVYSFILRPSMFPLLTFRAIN
Text: (§1) G-402 cell line was used as host cells to express (by transient or stable transfection) an enzyme of the human CYP11 family. Specifically, G-402 cell lines stably expressing human CYP11B1 and human CYP11B2 were established respectively. […] Therefore, the G-402 cell line is very suitable as a host cell for the ectopic expression of an enzyme of the CYP11 family.
(§2) The G-402 cell line, originally derived from renal myoblastoma, can be obtained from ATCC (CRL-1440). The main elements of an expression plasmid include ORF of human CYP11B1 or human CYP11B2, a suitable promoter (CMV promoter), and a suitable resistance marker (neomycin). The expression plasmid was transfected into G-402 cells by standard technology, and a specific antibiotic was then given for screening. The activity of the enzyme expressed by the screened monoclonal cells was assessed by 11-deoxycorticosterone (substrate of CYP11B2) and 11-deoxycortisol (substrate of CYP11B1).
(§3) The G-402 cells expressing CYP11 plasmid, as established in the above solution, were cultured in McCoy's 5a Modified Medium (ATCC Catalog No. 30-2007) containing 10% FCS and 400 μg/ml G418 in an incubator at 37° C. and 5% CO2. A cell enzyme experiment was carried out using DMEM/F12 medium containing 2.5% charcoal-treated FBS and an appropriate concentration of a substrate (1 μM 11-deoxycorticosterone or 1 μM 11-deoxycortisol). In order to detect the activity of the enzyme in the cells, the cells were plated in a 96-well plate and incubated for 16 h. The supernatant was then transfered and analyzed for the concentration of the expected product (the product of CYP11B2: aldosterone; the product of CYP11B1: cortisol). The concentrations of these products were determined by an HTRF experiment of CisBio.
(§4) In the cell enzyme experiment, the inhibitory effect of the test compound on the generated product can reflect the inhibitory effect thereof on the enzyme. The dose-dependent inhibition of the enzyme activity by the compound was calculated by plotting the concentration of the test compound (x axis) versus the measured product level (y axis). Then, the original data was fitted to a 4-parameter sigmoidal function (Morgan-Mercer-Flodin, MMF model) by least square method: y=(AB+Cx^D)/(B+x^D) in which A is the maximum y value, B is the EC50 determined by XLFit, C is the minimum y value, and D is the slope value. The maximum value A corresponds to the amount of the product detected without an inhibitor, and C corresponds to the amount of the product detected in the G402 cells expressing an empty plasmid.
(§5) The EC50 value of the compound of the present patent was determined by the above G-402 experiment system. […]

human CYP11B2 = molecular target: T2, human CYP11B2 (Homo sapiens, UniProt P19099); assay: G-402 cell enzyme experiment, human CYP11B2 (aldosterone production, HTRF); assay type: cell-based; settings: G-402 cells stably expressing human CYP11B2; 1 μM 11-deoxycorticosterone; 16 h; aldosterone by HTRF
T2 construct: The main elements of an expression plasmid include ORF of human CYP11B1 or human CYP11B2; expressed in transfected cells
T2 sequence (P19099 25-503): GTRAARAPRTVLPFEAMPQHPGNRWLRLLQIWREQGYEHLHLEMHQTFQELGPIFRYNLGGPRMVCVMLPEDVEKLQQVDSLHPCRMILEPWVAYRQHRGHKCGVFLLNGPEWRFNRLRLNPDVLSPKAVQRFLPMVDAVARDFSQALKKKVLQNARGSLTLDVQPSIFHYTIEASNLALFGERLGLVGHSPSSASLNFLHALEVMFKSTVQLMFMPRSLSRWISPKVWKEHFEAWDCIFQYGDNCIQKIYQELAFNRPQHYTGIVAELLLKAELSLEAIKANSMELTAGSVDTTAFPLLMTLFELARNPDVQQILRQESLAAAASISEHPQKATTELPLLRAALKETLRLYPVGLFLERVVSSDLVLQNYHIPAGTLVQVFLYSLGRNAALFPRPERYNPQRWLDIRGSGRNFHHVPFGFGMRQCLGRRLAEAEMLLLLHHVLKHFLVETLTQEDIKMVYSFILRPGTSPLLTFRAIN
Text: as §1, §2, §3, §4, §5

[1] = Pharmacokinetic assay in mice; assay type: in vivo; settings: mouse, male Balb/c mice, plasma, table does not print the route (objective: oral administration, PO 5 mg/kg)
Description: Balb/c mice were used as test animals to study the pharmacokinetic behavior of the compounds of the present disclosure in mice (plasma) after oral administration.
Compounds of the present disclosure, made in house.
3 Balb/c mice per group, male; from Shanghai Bk Lab Animal Co., Ltd., with animal production license number (SCXK (Shanghai) 2013-0006 N0.311620400001794).
0.5 g of sodium carboxymethyl cellulose (CMC-Na, viscosity: 800-1200 Cps) was weighed and dissolved in 99 mL of purified water, and 1 ml of Tween 80 was added. These materials were uniformly mixed to form a clear solution.
Examples 1 and 2 were weighed and dissolved in the solution, and the mixtures were shaken well and ultrasonicated for 15 min to obtain colorless clear solutions with a concentration of 0.5 mg/mL.
Examples 1 and 2 were weighed, and 5% of DMSO was added based on the total administration volume; the mixture was vortexed and ultrasonicated for 2 min to ensure complete dissolution; then, 10% Solutol HS15 was added, and the mixture was vortexed and ultrasonicated for 2 min to achieve complete dissolution; finally, 85% PBS was added, and the mixture was vortexed and ultrasonicated for 5 min; the resulting mixture was filtered through a […] filter membrane to obtain a colorless, transparent, and clear solution with a concentration of 0.2 mg/mL.
After overnight fasting, 3 male Balb/c mice per group were administered orally (PO) at a dose of 5 mg/kg with an administration volume of 10 mL/kg.
After overnight fasting, 3 male Balb/c mice per group were administered intravenously (IV) at a dose of 1 mg/kg with an administration volume of 5 mL/kg.
0.04 mL of blood was collected from the orbit of the experimental animals before administration and at 0.25 h, 0.5 h, 1.0 h, 2.0 h, 4.0 h, 6.0 h, 8.0 h, and 24.0 h after administration and placed in an EDTA-2K test tube, and the test tube was centrifuged at 8000 rpm for 6 min at 4° C. to separate the plasma, which was stored at −80° C.; and the animals were fed 4 h after administration.
The final determination results were obtained by using LCMS/MS method.

aldosterone = assay: In vivo efficacy assay, ACTH challenge: plasma aldosterone; set-up: species or system cynomolgus monkeys; settings: for Aldosterone, 0: 0 hour after 5 μg/kg ACTH I.V. (given one hour after dosing); for Aldosterone, 0.5 h: 0.5 h after 5 μg/kg ACTH I.V.
Description: (§6) Male cynomolgus monkeys were gavaged (P.O.) with the compounds to be tested and divided into 0 mpk (vehicle group), 0.1 mpk, 0.3 mpk, 1 mpk, and 3 mpk dose groups. Each group was given 5 μg/kg ACTH intravenous injection (I.V.) after one hour. Blood samples were collected at −1 hour, 0 hour, 0.5 hours, 1.0 hour, 1.5 hours, 2 hours, and 3 hours after intravenous injection of ACTH. The volume was about 0.5 mL at each time point. The samples were centrifuged (3200 g, at 2-8° C. for 10 minutes) within one hour after collection. The contents of the plasma aldosterone, cortisol, corticosterone, 11-deoxycortisol, and 11-deoxycorticosterone at each time point were then analyzed by LC/MS-MS method.

cortisol = assay: In vivo efficacy assay, ACTH challenge: plasma cortisol; set-up: species or system cynomolgus monkeys; settings: for Cortisol, 0: 0 hour after 5 μg/kg ACTH I.V. (given one hour after dosing); for Cortisol, 1 h: 1 h after 5 μg/kg ACTH I.V.
Description: as §6

hsF (human selective factor: ratio of CYP11B1 EC50 to CYP11B2 EC50) (human CYP11B1): >1279×
Structure (SMILES): CN1C(=O)OCc2cc(-c3cncc(N4CC5(CN(C(=O)c6cnn(C)c6)C5)C4)c3)ccc21 [Example 60, 1-Methyl-6-(5-(6-(1-methyl-1H-pyrazole-4-carbonyl)-2,6-diazaspiro[3.3]heptan-2-yl)pyridin-3-yl)-1,4-dihydro-2H-benzo[d][1,3]oxazin-2-one]

EC50 (human CYP11B2): 7 nM
hsF (human selective factor: ratio of CYP11B1 EC50 to CYP11B2 EC50) (human CYP11B1): 394×
Structure (SMILES): CN1C(=O)OCc2cc(-c3cncc(C4=CCN(S(=O)(=O)C5CC5)CC4)c3)ccc21 [Example 68, 6-(1′-(Cyclopropylsulfonyl)-1′,2′,3′,6′-tetrahydro-[3,4′-bipyridine]-5-yl)-1-methyl-1,4-dihydro-2H-benzo[d][1,3]oxazin-2-one]

EC50 (human CYP11B2): 48 nM
Structure (SMILES): CCS(=O)(=O)N1CC(Oc2cncc(-c3ccc4c(c3)COC(=O)N4C)c2)C1 [Example 58, 6-(5-((1-(Ethylsulfonyl)azetidin-3-yl)oxy)pyridin-3-yl)-1-methyl-1,4-dihydro-2H-benzo[d][1,3]oxazin-2-one]

EC50 (human CYP11B2): 70 nM
hsF (human selective factor: ratio of CYP11B1 EC50 to CYP11B2 EC50) (human CYP11B1): 144×
AUC(0-inf) [1]: 20800 ng·h/mL
AUC(0-t) [1]: 20800 ng·h/mL
Cmax [1]: 3770 ng/mL
Tmax [1]: 0.3 h
half-life [1]: 2.7 h
MRT inf ([1]; read-out: MRT0-∞): 4.7 h
Structure (SMILES): CCC(=O)N[C@@H]1CCCc2c(-c3ccc4c(c3)COC(=O)N4C)cncc21 [Example 1-A]
Aldosterone, 0 (aldosterone; 0.1 mpk P.O.): 0.38 ng/mL
Aldosterone, 0.5 h (aldosterone; 0.1 mpk P.O.): 0.33 ng/mL
Aldosterone, 0 (aldosterone; 0.3 mpk P.O.): 0.23 ng/mL
Aldosterone, 0.5 h (aldosterone; 0.3 mpk P.O.): 0.17 ng/mL
Aldosterone, 0 (aldosterone; 1 mpk P.O.): 0.12 ng/mL
Aldosterone, 0.5 h (aldosterone; 1 mpk P.O.): 0.15 ng/mL
Aldosterone, 0 (aldosterone; 3 mpk P.O.): 0.13 ng/mL
Aldosterone, 0.5 h (aldosterone; 3 mpk P.O.): 0.09 ng/mL
Cortisol, 0 (cortisol; 0.1 mpk P.O.): 246 ng/mL
Cortisol, 1 h (cortisol; 0.1 mpk P.O.): 360 ng/mL
Cortisol, 0 (cortisol; 0.3 mpk P.O.): 230 ng/mL
Cortisol, 1 h (cortisol; 0.3 mpk P.O.): 355 ng/mL
Cortisol, 0 (cortisol; 1 mpk P.O.): 215 ng/mL
Cortisol, 1 h (cortisol; 1 mpk P.O.): 315 ng/mL
Cortisol, 0 (cortisol; 3 mpk P.O.): 225 ng/mL
Cortisol, 1 h (cortisol; 3 mpk P.O.): 326 ng/mL

EC50 (human CYP11B2): 35 nM
Structure (SMILES): CN1C(=O)CCc2cc(-c3cncc4c3CCC[C@H]4NC(=O)CC34CC(C3)C4)ccc21 [Example 37]

hsF (human selective factor: ratio of CYP11B1 EC50 to CYP11B2 EC50) (human CYP11B1): 174×
Structure (SMILES): CCC(=O)N[C@@H]1CCCc2c(-c3ccc4c(c3)OCC(=O)N4C)cncc21 [Example 2-A]
